Common to all, as to assay type: biochemical
Assay [1] deals with T1, recombinant soluble tissue factor and recombinant human factor VIIa (TF-VIIa) (Homo sapiens, UniProt P08709).
T1 construct: conversion of coagulation factor VII to VIIa by factor Xa; purchased American Diagnostica, Greenwich CT; host or cells: soluble TF made in house in E. coli
The assay can be described thus: TF-VIIa assay (chromogenic substrate hydrolysis). Conditions: reported only as less than or greater than 0.1 uM. In outline: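 Chromogenic read at OD405, compared with control for percent inhibition. Substrate N-methylsulfonyl-D-phe-gly-arg-p-nitroaniline at 0.4 mM is cleaved by recombinant human VIIa (2 nM) complexed with soluble TF (100 nM). Buffer: pH 8.0 Tris-HCl 50 mM, CaCl2 5 mM, NaCl 100 mM, BSA 0.1%.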

The next assay has as its target T2, Human factor Xa (Homo sapiens, UniProt P00742).
T2 construct: purchased Enzyme Research Laboratories, South Bend Ind
As to the kind of experiment: Xa assay (chromogenic substrate S-2765). Conditions: reported only as less than or greater than 30 uM; read-out: Factor Xa (II) IC50. The procedure, abridged:
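Chromogenic readout: S-2765 hydrolysis (0.15 mM) by 0.3 nM human FXa was monitored at 405 nm after 60 min at room temperature, with a time-zero background read. Buffer: 50 mM Tris-HCl, pH 8.0, 100 mM NaCl, 0.1% BSA. Inhibition is relative to buffer-only controls.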

The target of another assay is T3, Human thrombin (Homo sapiens, UniProt P00734).
T3 construct: converts prothrombin (II) to thrombin (IIa); purchased Calbiochem, La Jolla, Calif
The assay can be described thus: Thrombin assay (chromogenic substrate). As to conditions: reported only as less than or greater than 30 uM; read-out: Thrombin (II) IC50. In outline:
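Percent inhibition derived by comparing OD405 nm of compound-treated and control samples. Thrombin cleavage of a p-nitroanilide chromogenic substrate provides the signal.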

Assay [2] has as its system Normal human pooled plasma. As to the kind of experiment: Prothrombin time (PT) clotting assay. As to conditions: concentration at which prothrombin time is prolonged by 2x normal, reported as less than or greater than 50 uM. The procedure, abridged: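 Normal human pooled plasma incubated with 100 uM compound or saline, then thromboplastin (human tissue factor) added and clotting time recorded in a coagulation machine. Compounds exceeding 3× normal PT (11.0 s) are titrated to find the concentration doubling PT.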

Results on 25 molecules are retold here after patent publication US20040106626A1, “6-Membered unsaturated heterocyclic compounds useful for selective inhibition of the coagulation cascade” (Pharmacia Corporation, priority 2001, published 2004).

T1 sequence (P08709 213-466 limits assumed): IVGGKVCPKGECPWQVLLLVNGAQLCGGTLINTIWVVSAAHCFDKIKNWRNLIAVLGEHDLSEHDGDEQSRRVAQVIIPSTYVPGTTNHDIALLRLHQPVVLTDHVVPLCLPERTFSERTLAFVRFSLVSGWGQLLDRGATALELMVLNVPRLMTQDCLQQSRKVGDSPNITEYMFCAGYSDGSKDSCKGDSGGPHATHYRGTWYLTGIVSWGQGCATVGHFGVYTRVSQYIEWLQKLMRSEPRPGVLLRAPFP
T1 sequence (P08709 61-212 limits assumed): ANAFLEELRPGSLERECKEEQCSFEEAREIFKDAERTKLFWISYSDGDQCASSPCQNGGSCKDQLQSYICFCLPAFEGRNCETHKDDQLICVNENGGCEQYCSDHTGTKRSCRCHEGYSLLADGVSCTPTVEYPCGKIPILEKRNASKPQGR
T1 sequence (P13726 33-251 partner limits assumed): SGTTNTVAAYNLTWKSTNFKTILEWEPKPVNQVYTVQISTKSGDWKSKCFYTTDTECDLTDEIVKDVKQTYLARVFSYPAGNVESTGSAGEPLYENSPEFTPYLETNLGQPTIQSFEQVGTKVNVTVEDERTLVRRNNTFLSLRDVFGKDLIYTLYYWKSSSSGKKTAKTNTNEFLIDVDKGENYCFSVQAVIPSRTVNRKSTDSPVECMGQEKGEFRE
T2 sequence (P00742 235-488 limits assumed): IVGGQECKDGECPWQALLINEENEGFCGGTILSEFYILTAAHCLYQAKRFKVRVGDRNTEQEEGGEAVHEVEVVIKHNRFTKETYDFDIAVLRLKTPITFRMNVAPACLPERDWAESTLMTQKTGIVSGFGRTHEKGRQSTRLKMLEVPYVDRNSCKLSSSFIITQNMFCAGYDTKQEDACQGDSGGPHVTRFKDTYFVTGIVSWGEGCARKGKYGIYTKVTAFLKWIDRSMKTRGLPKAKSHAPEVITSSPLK
T2 sequence (P00742 41-179 limits assumed): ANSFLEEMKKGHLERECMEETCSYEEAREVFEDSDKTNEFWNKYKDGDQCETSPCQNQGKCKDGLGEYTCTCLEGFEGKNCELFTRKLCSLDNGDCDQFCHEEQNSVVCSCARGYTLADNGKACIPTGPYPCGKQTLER

For orientation: IC50 means the concentration at which inhibition is half-maximal. Take `CC(C)Nc1ncc(-c2cc(N)cc(OCCc3ccccc3)c2)n(CC(=O)NCc2ccc(C(=N)N)cc2)c1=O.O=C(O)C(F)(F)F.O=C(O)C(F)(F)F` [Example 211]: the IC50 in assay [1] was < 0.1 µM; at Human factor Xa, > 30 µM; on Human thrombin, > 30 µM. In addition, in assay [2], the “PT (Prothrombin time) 2xPT” value is <50.0 µM.

For the molecule `CC(C)Nc1ncc(-c2cc(N)cc(OC3CCCC3)c2)n(CC(=O)NCc2ccc(C(=N)N)cc2)c1=O.O=C(O)C(F)(F)F.O=C(O)C(F)(F)F` [Example 212], the results for the half-inhibitory concentration (IC50) (in assay [1]; on Human factor Xa; on Human thrombin) were < 0.1 µM, > 30 µM and > 30 µM, respectively. Further, the “PT (Prothrombin time) 2xPT” value in assay [2] was <50.0 µM.

With `CC(C)Nc1ncc(-c2cc(N)cc(OCC(C)(C)N(C)C)c2)n(CC(=O)NCc2ccc(C(=N)N)cc2)c1=O.O=C(O)C(F)(F)F.O=C(O)C(F)(F)F` [Example 213], the IC50 in assay [1] is < 0.1 µM; at Human factor Xa, > 30 µM; at Human thrombin it was > 30 µM. In addition, the “PT (Prothrombin time) 2xPT” value in assay [2] was <50.0 µM.

Turning to `CC(C)CCOc1cc(N)cc(-c2cnc(NC(C)C)c(=O)n2CC(=O)NCc2ccc(C(=N)N)cc2)c1.O=C(O)C(F)(F)F.O=C(O)C(F)(F)F` [Example 214], the IC50 was < 0.1 µM in assay [1], > 30 µM on Human factor Xa and > 30 µM on Human thrombin. In assay [2], the “PT (Prothrombin time) 2xPT” value is <50.0 µM.

Consider `CC(C)Nc1ncc(-c2cc(N)cc(OCCC(C)(C)C)c2)n(CC(=O)NCc2ccc(C(=N)N)cc2)c1=O.O=C(O)C(F)(F)F.O=C(O)C(F)(F)F` [Example 215], for which the results for the IC50 (in assay [1]; at Human factor Xa; at Human thrombin) were < 0.1 µM, > 30 µM and > 30 µM, respectively. Also, the “PT (Prothrombin time) 2xPT” value in assay [2] is <50.0 µM.

Regarding `CC(C)Nc1ncc(-c2cc(N)cc(OC(C)C)c2)n(CC(=O)NCc2ccc(C(=N)N)cc2)c1=O.O=C(O)C(F)(F)F.O=C(O)C(F)(F)F` [Example 216], the values for the IC50 (in assay [1]; on Human factor Xa; on Human thrombin) were < 0.1 µM, > 30 µM and > 30 µM, respectively. The “PT (Prothrombin time) 2xPT” value in assay [2] is <50.0 µM.

Regarding `CC(C)Nc1ncc(-c2cc(N)cc(OCC(C)(C)CN(C)C)c2)n(CC(=O)NCc2ccc(C(=N)N)cc2)c1=O.O=C(O)C(F)(F)F.O=C(O)C(F)(F)F` [Example 217], the half-inhibitory concentration (IC50) was < 0.1 µM in assay [1], > 30 µM at Human factor Xa and < 30 µM on Human thrombin. For the same molecule, in assay [2], the “PT (Prothrombin time) 2xPT” value was <50.0 µM.

Consider `CC(C)Nc1ncc(-c2cc(N)cc(OC3Cc4ccccc4C3)c2)n(CC(=O)NCc2ccc(C(=N)N)cc2)c1=O.O=C(O)C(F)(F)F.O=C(O)C(F)(F)F` [Example 218], for which the IC50 in assay [1] was < 0.1 µM; at Human factor Xa, > 30 µM; at Human thrombin, > 30 µM. Further, in assay [2], the “PT (Prothrombin time) 2xPT” value was <50.0 µM.

`COCCOc1cc(N)cc(-c2cnc(NC(C)C)c(=O)n2CC(=O)NCc2ccc(C(=N)N)cc2)c1.O=C(O)C(F)(F)F.O=C(O)C(F)(F)F` [Example 219]: the IC50 in assay [1] is < 0.1 µM; on Human factor Xa, > 30 µM; at Human thrombin, > 30 µM. Besides, in assay [2], the “PT (Prothrombin time) 2xPT” value is <50.0 µM.

With `CC(C)Nc1ncc(-c2cc(N)cc(OCC3CCCC3)c2)n(CC(=O)NCc2ccc(C(=N)N)cc2)c1=O.O=C(O)C(F)(F)F.O=C(O)C(F)(F)F` [Example 220], the IC50 in assay [1] is < 0.1 µM; on Human factor Xa, > 30 µM; on Human thrombin it was > 30 µM. Also, the “PT (Prothrombin time) 2xPT” value in assay [2] was <50.0 µM.

Consider `CC(C)Nc1ncc(-c2cc(N)cc(OCC3CCCCC3)c2)n(CC(=O)NCc2ccc(C(=N)N)cc2)c1=O.O=C(O)C(F)(F)F.O=C(O)C(F)(F)F` [Example 221], for which the IC50 in assay [1] was < 0.1 µM; on Human factor Xa, > 30 µM; on Human thrombin it was > 30 µM. Moreover, the “PT (Prothrombin time) 2xPT” value in assay [2] is >50.0 µM.

As for `CCCCOc1cc(N)cc(-c2cnc(NC(C)C)c(=O)n2CC(=O)NCc2ccc(C(=N)N)cc2)c1.O=C(O)C(F)(F)F.O=C(O)C(F)(F)F` [Example 222], the 50% inhibitory concentration (IC50) in assay [1] is < 0.1 µM; at Human factor Xa, > 30 µM; at Human thrombin, > 30 µM. In addition, the “PT (Prothrombin time) 2xPT” value in assay [2] is <50.0 µM.

Regarding `CC(C)Nc1ncc(-c2cc(N)cc(OCC3CC3)c2)n(CC(=O)NCc2ccc(C(=N)N)cc2)c1=O.O=C(O)C(F)(F)F.O=C(O)C(F)(F)F` [Example 223], the IC50 in assay [1] was < 0.1 µM; at Human factor Xa it was > 30 µM; on Human thrombin, > 30 µM. The “PT (Prothrombin time) 2xPT” value in assay [2] was <50.0 µM.

Consider `CCC(C)Oc1cc(N)cc(-c2cnc(NC(C)C)c(=O)n2CC(=O)NCc2ccc(C(=N)N)cc2)c1.O=C(O)C(F)(F)F.O=C(O)C(F)(F)F` (stereo not shown) [Example 224], for which the IC50 in assay [1] was < 0.1 µM; on Human factor Xa, > 30 µM; at Human thrombin, > 30 µM. Besides, the “PT (Prothrombin time) 2xPT” value in assay [2] was <50.0 µM.

In the case of `CC(C)Nc1ncc(-c2cc(N)cc(OC3CCCCC3)c2)n(CC(=O)NCc2ccc(C(=N)N)cc2)c1=O.O=C(O)C(F)(F)F.O=C(O)C(F)(F)F` [Example 225], the IC50 is < 0.1 µM in assay [1], > 30 µM on Human factor Xa and > 30 µM at Human thrombin. For the same molecule, the “PT (Prothrombin time) 2xPT” value in assay [2] was >50.0 µM.

On to `CC(C)Nc1ncc(-c2cc(N)cc(-c3nnn[nH]3)c2)n(CC(=O)NCc2ccc(C(=N)N)cc2)c1=O.O=C(O)C(F)(F)F` [Example 227, N-{4-[amino(imino)methyl]benzyl}-2-[6-[3-amino-5-(1H-tetraazol-5-yl)phenyl]-3-(isopropylamino)-2-oxopyrazin-1 (2H)-yl]acetamide], for which the figures for the 50% inhibitory concentration (IC50) (in assay [1]; on Human factor Xa; on Human thrombin) were < 0.1 µM, > 30 µM and > 30 µM, respectively. Further, the “PT (Prothrombin time) 2xPT” value in assay [2] is <50.0 µM.

As to `CC(C)Nc1ncc(-c2cc(N)cc(S(=O)(=O)CC(C)(C)C)c2)n(CC(=O)NCc2ccc(C(=N)N)cc2)c1=O.O=C(O)C(F)(F)F.O=C(O)C(F)(F)F` [Example 228], the IC50 in assay [1] was < 0.1 µM; on Human factor Xa it was > 30 µM; at Human thrombin it was > 30 µM. Besides, the “PT (Prothrombin time) 2xPT” value in assay [2] was <50.0 µM.

Turning to `CCC(CC)CS(=O)(=O)c1cc(N)cc(-c2cnc(NC(C)C)c(=O)n2CC(=O)NCc2ccc(C(=N)N)cc2)c1.O=C(O)C(F)(F)F.O=C(O)C(F)(F)F` [Example 229], the results for the 50% inhibitory concentration (IC50) (in assay [1]; at Human factor Xa; on Human thrombin) were < 0.1 µM, > 30 µM and > 30 µM, respectively. The “PT (Prothrombin time) 2xPT” value in assay [2] is <50.0 µM.

With `CCCCS(=O)(=O)c1cc(N)cc(-c2cnc(NC(C)C)c(=O)n2CC(=O)NCc2ccc(C(=N)N)cc2)c1.O=C(O)C(F)(F)F.O=C(O)C(F)(F)F` [Example 230], the IC50 in assay [1] was < 0.1 µM; at Human factor Xa it was > 30 µM; at Human thrombin, > 30 µM. Also, in assay [2], the “PT (Prothrombin time) 2xPT” value is <50.0 µM.

For `CCC(CC)S(=O)(=O)c1cc(N)cc(-c2cnc(NC(C)C)c(=O)n2CC(=O)NCc2ccc(C(=N)N)cc2)c1.O=C(O)C(F)(F)F.O=C(O)C(F)(F)F` [Example 231], the IC50 in assay [1] is < 0.1 µM; on Human factor Xa it was > 30 µM; on Human thrombin, > 30 µM. Moreover, in assay [2], the “PT (Prothrombin time) 2xPT” value is <50.0 µM.

Regarding `CCS(=O)(=O)c1cc(N)cc(-c2cnc(NC(C)C)c(=O)n2CC(=O)NCc2ccc(C(=N)N)cc2)c1.O=C(O)C(F)(F)F.O=C(O)C(F)(F)F` [Example 232], the results for the IC50 (in assay [1]; on Human factor Xa; on Human thrombin) were < 0.1 µM, > 30 µM and > 30 µM, respectively. For the same molecule, the “PT (Prothrombin time) 2xPT” value in assay [2] was <50.0 µM.

Regarding `CC(C)Nc1ncc(-c2cc(N)cc(S(=O)(=O)CC3CCCCC3)c2)n(CC(=O)NCc2ccc(C(=N)N)cc2)c1=O.O=C(O)C(F)(F)F.O=C(O)C(F)(F)F` [Example 233], the figures for the IC50 (in assay [1]; at Human factor Xa; on Human thrombin) were < 0.1 µM, > 30 µM and > 30 µM, respectively. In addition, the “PT (Prothrombin time) 2xPT” value in assay [2] is <50.0 µM.

On to `CC(C)Nc1ncc(-c2cc(N)cc(S(=O)(=O)C3CCCC3)c2)n(CC(=O)NCc2ccc(C(=N)N)cc2)c1=O.O=C(O)C(F)(F)F.O=C(O)C(F)(F)F` [Example 235], for which the half-inhibitory concentration (IC50) is < 0.1 µM in assay [1], > 30 µM at Human factor Xa and > 30 µM on Human thrombin. The “PT (Prothrombin time) 2xPT” value in assay [2] is <50.0 µM.

Turning to `CCC(C)CS(=O)(=O)c1cc(N)cc(-c2cnc(NC(C)C)c(=O)n2CC(=O)NCc2ccc(C(=N)N)cc2)c1.O=C(O)C(F)(F)F.O=C(O)C(F)(F)F` (stereo not shown) [Example 237], the IC50 in assay [1] was < 0.1 µM; at Human factor Xa, > 30 µM; at Human thrombin it was > 30 µM. Also, the “PT (Prothrombin time) 2xPT” value in assay [2] is <50.0 µM.

Take `CC(C)Nc1ncc(-c2cc(N)cc(OC(=O)C3CC3)c2)n(CC(=O)NCc2ccc(C(=N)N)cc2)c1=O.O=C(O)C(F)(F)F.O=C(O)C(F)(F)F` [Example 238]: the IC50 in assay [1] is < 0.1 µM; at Human factor Xa, > 30 µM; on Human thrombin, > 30 µM. In addition, the “PT (Prothrombin time) 2xPT” value in assay [2] is <50.0 µM.
